# Assay results published in paper PMC7413516, “Antidepressant-like activity and safety profile evaluation of 1H-imidazo[2,1-f]purine-2,4(3H,8H)-dione derivatives as 5-HT1A receptor partial agonists” (PLoS ONE, 2020).
# Several values for one entry are separate records, joined by “and”; a condition that tells them apart may be missing. Equal values may be shown once.
# Columns and labels:
# [1] = Body weight measurement in the 17-day experiment; assay type: in vivo, Swiss albino mice; settings: for body weight Mean / body weight: mouse, 0.625 mg/kg
# Method: (§1) The Swiss albino mice were used in the experiment. AZ-853 and AZ-861 were injected once daily for 16 consecutive days. On the 1st and 15th day the administration of the compounds, 18-h spontaneous animal activity was registered (see below). FST, as described earlier, was performed on the 14th day just before the next treatment. To ensure that the effects observed in FST are not the result of increased motility of animals, on the 13th day, just before the next administration, the locomotor activity was measured as described earlier, from 2 to 6 min after test start, i.e. in the period identical to the duration of FST. Blood and organ collection was performed on the 17th day at 24 h after the last dose and fasting.
# The body weight was measured daily immediately prior to administration of the drugs. On the 17th day, the blood was collected from the Swiss albino mice sacrificed by decapitation 20 min after i.p. administration of heparin (2500 units/mouse) and then centrifuged at 600 × g (15 min, 4°C) to separate plasma. The liver, heart, and kidney were also collected and weighed.
# mice = test: Locomotor activity (Opto M3 activity monitor) in mice; assay type: in vivo, Swiss albino mice; settings: for Number of movements (individual animals): raw data
# From the text: The investigated compounds AZ-853 (8-(4-(4-(2-fluorophenyl)piperazin-1-yl)butyl)-1,3-dimethyl-1H-imidazo[2,1-f]purine-2,4(3H,8H)-dione and AZ-861 (1,3-dimethyl-8-(4-(4-(3-(trifluoromethyl)phenyl)piperazin-1-yl)butyl)-1H-imidazo[2,1-f]purine-2,4(3H,8H)-dione) were synthesised in the Department of Medicinal Chemistry, Faculty of Pharmacy, Jagiellonian University, and their synthesis was described earlier. AZ-853 and AZ-861 were suspended in 1% aqueous solution of Tween 80, and WAY-100635 (Sigma, Germany) was dissolved in 0.9% saline. In acute experiments, the selected compounds AZ-853 (0.156–2.5 mg/kg) and AZ-861 (0.625–2.5 mg/kg) were injected i.p. once 60 min before tests, whereas WAY-100635 (0.3 mg/kg) was administered subcutaneously (s.c.) 45 min before the test. […] In chronic experiments, AZ-853 and AZ-861 were administered i.p. once a day (between 9:00 AM and 10:00 AM) for 16 consecutive days at the minimum active doses selected from FST experiment, i.e. 0.625 and 1.25 mg/kg, respectively. […]. The control groups received 1% aqueous solution of Tween 80.
# Locomotor activity was recorded with an Opto M3 multi-channel activity monitor (MultiDevice Software v.1.3, Columbus Instruments). The Swiss albino mice were individually placed in plastic cages (220 × 120 × 130 mm) for 30 min habituation period, and then the crossings of each channel (ambulation) were counted from […] to 6 min, that is the time equal to the observation period in FST. The cages were cleaned up with 70% ethanol after each mouse.
# as §1, with “[…].” for “On the 1st and 15th day the administration of the compounds, 18-h spontaneous animal activity was registered (see below).”
# [2] = molecular target: T1, human serotonin 5-HT1A receptor (Homo sapiens, UniProt P08908); test: ERK1/2 phosphorylation (SureFire Alpha LISA, CHO-K1 5HT1AR cells)
# T1 sequence (P08908 1-422): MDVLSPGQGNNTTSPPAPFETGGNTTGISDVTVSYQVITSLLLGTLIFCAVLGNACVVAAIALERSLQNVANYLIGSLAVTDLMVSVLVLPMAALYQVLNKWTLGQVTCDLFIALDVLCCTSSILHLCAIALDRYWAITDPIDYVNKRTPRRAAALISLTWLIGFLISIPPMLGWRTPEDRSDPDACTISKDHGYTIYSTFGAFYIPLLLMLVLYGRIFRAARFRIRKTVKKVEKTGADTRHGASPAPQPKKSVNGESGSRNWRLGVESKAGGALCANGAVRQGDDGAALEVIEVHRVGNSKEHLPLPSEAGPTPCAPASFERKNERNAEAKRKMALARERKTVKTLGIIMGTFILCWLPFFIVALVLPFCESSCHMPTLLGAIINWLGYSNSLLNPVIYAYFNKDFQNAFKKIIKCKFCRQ
# Method: CHO-K1 cell line transfected with 5-HT1A receptor, were commercially obtained from Perkin Elmer (Cat. No. ES-310-C, Lot Number M2W-C1). Cells were cultured according to manufacturer’s instruction. […] Geneticin-resistant clones were obtained by limit dilution and compared for receptor expression levels using a radioligand binding assay. The clone with the highest receptor expression level was selected for characterization in binding and functional assays. […] Corresponding Protein Sequence: Identical to GenBank NP_000515.2. Receptor expression level (BMAX): Estimated to be 3.7 ± 2.3 pmol/mg protein, using [3H] […] This cell line tested negative for mycoplasma.
# human 5-HT1AR = molecular target: T2, human 5-HT1AR (Homo sapiens, UniProt P08908); test: β-Arrestin recruitment (Tango LiveBLAzer, HTR1A-bla U2OS cells)
# T2 sequence (P08908 1-422): T1 sequence (P08908 1-422)
# Method: Cells were cultured according to manufacturer’s instruction. […] This parental cell line stably expresses a beta-arrestin/TEV protease fusion protein and the beta-lactamase reporter gene under the control of a UAS response element. The Tango™ HTR1A-bla U2OS cells have been functionally validated for a response to 5-CT. This cell line tested negative for mycoplasma.
# The HTR1A-bla U2OS receptor cells containing the human 5-HT1AR linked to a TEV protease site and a Gal4-VP16 transcription factor were tested for recruitment of β-arrestin. […] The recruitment of β-arrestin were tested using the Tango LiveBLAzer assay kit according to the manufacturer’s instruction (Life Technologies). The assay plate was measured in FLUOstar Optima, a multifunction plate reader (BMG Lab Tech).
smiles,measurement,setting,value
"Cn1c(=O)c2c(nc3n(CCCCN4CCN(c5ccccc5F)CC4)ccn23)n(C)c1=O [AZ-853, 8-(4-(4-(2-fluorophenyl)piperazin-1-yl)butyl)-1,3-dimethyl-1H-imidazo[2,1-f]purine-2,4(3H,8H)-dione]",effect on body weight,"[1]; mice, repeated i.p. once daily, AZ-853 0.625 mg/kg (from 10th day), AZ-861 1.25 mg/kg (2nd, 3rd, 4th day)",slight but significant increase in body weight
same,body weight Mean,"[1]; day 1, group mean",23.45 g
same,body weight,"[1]; day 1, individual mouse",24.7 g (2×) and 22.9 g and 21.9 g and 25.0 g and 23.8 g and 23.0 g and 21.7 g (2×) and 25.1 g
same,body weight Mean,"[1]; day 2, group mean",23.55 g
same,body weight,"[1]; day 2, individual mouse",24.9 g and 23.5 g and 24.2 g and 22.6 g and 24.5 g and 23.3 g and 22.7 g and 21.2 g and 22.0 g and 26.6 g
same,body weight Mean,"[1]; day 3, group mean",23.90 g
same,body weight,"[1]; day 3, individual mouse",25.0 g (2×) and 24.0 g (3×) and 23.0 g (2×) and 22.0 g (2×) and 27.0 g
same,body weight Mean,"[1]; day 4, group mean",23.70 g
same,body weight,"[1]; day 4, individual mouse",24.0 g (4×) and 25.0 g and 22.0 g (3×) and 23.0 g and 27.0 g
same,body weight Mean,"[1]; day 5, group mean",23.80 g
same,body weight,"[1]; day 5, individual mouse",23.3 g and 23.8 g and 24.9 g and 22.7 g and 24.6 g and 23.7 g and 23.6 g and 22.2 g and 22.8 g and 26.4 g
same,body weight Mean,"[1]; day 6, group mean",23.85 g
same,body weight,"[1]; day 6, individual mouse",24.2 g and 23.2 g and 24.4 g and 22.9 g and 24.7 g and 23.9 g and 23.5 g and 21.9 g and 23.4 g and 26.4 g
same,body weight Mean,"[1]; day 7, group mean",24.10 g
same,body weight,"[1]; day 7, individual mouse",24.0 g (4×) and 25.0 g (2×) and 23.0 g (3×) and 26.0 g
same,body weight Mean,"[1]; day 8, group mean",24.50 g
same,body weight,"[1]; day 8, individual mouse",25.0 g (2×) and 26.0 g (3×) and 23.0 g (3×) and 24.0 g (2×)
same,body weight Mean,"[1]; day 9, group mean",25.00 g
same,body weight,"[1]; day 9, individual mouse",25.0 g (2×) and 26.0 g (2×) and 27.0 g (2×) and 23.0 g (2×) and 24.0 g (2×)
same,body weight Mean,"[1]; day 10, group mean",25.14 g
same,body weight,"[1]; day 10, individual mouse",25.4 g and 24.9 g and 26.7 g and 23.8 g and 25.2 g and 24.3 g and 24.0 g and 23.7 g and 25.7 g and 27.7 g
same,body weight Mean,"[1]; day 11, group mean",24.68 g
same,body weight Mean,"[1]; day 12, group mean",25.52 g
same,body weight Mean,"[1]; day 13, group mean",25.54 g
same,body weight Mean,"[1]; day 14, group mean",25.91 g
same,body weight Mean,"[1]; day 15, group mean",26.09 g
same,"effect on spontaneous locomotor activity, acute administration","mice; 4 min period identical to FST, AZ-853 0.625, 1.25, 2.5 mg/kg, AZ-861 1.25 mg/kg, WAY-100635 0.3 mg/kg alone or combined",did not change the behavior of the animals
same,Number of movements (mean),"mice; acute, 0.625 mg/kg i.p., measured from 3 to 6 min",127.8
same,Number of movements (individual animals),"mice; acute, 0.625 mg/kg, 3 to 6 min",130 and 222 and 166 and 48 and 117 and 84
same,Number of movements (mean),"mice; acute, 1.25 mg/kg i.p., measured from 3 to 6 min",149.8
same,Number of movements (individual animals),"mice; acute, 1.25 mg/kg, 3 to 6 min",200 and 171 and 90 and 115 and 119 and 204
same,Number of movements (mean),"mice; acute, 2.5 mg/kg i.p., measured from 3 to 6 min",156.8
same,Number of movements (individual animals),"mice; acute, 2.5 mg/kg, 3 to 6 min",116 and 258 and 120 and 200 and 205 and 42
same,Number of movements (mean),"mice; repeated, 0.625 mg/kg, 24 h after 12th administration, during 4 min",519.5
same,Number of movements (individual animals),"mice; repeated, 0.625 mg/kg",820 and 399 and 687 and 223 and 606 and 272 and 558 and 551 and 418 and 661
same,EC50,[2],6.61 nM
same,Emax,"[2]; CHO-K1, read-out: Emax (%) ± SEM, agonist mode",60 ± 2%
same,decreased efficacy as compared to 5-HT,[2]; p-ERK1/2,1.6 fold
same,increased potency as compared to 5-HT,[2]; p-ERK1/2,1.5 fold
same,EC50,human 5-HT1AR,4.17 nM
same,Emax,"human 5-HT1AR; U2OS, read-out: Emax (%) ± SEM, agonist mode",93 ± 1.7%
same,increased potency as compared to 5-HT,human 5-HT1AR; β-arrestin recruitment,95 fold
